Assay results: paper PMC6407917, “Identification of GSK3186899/DDD853651 as a Preclinical Development Candidate for the Treatment of Visceral Leishmaniasis” (Journal of Medicinal Chemistry, 2018)

Experiments:
Assay in all cases: biochemical
Set-up in all cases: species or system HEK293/K-562/placenta mixed human extract; Kinobeads chemoproteomic competition binding, quantified by TMT LC-MS/MS, dose response up to 20 uM
[1] = biological target: ARAF (Homo sapiens, UniProt P10398)
[2] = biological target: AXL (Homo sapiens, UniProt P30530)
AXL, sequence (P30530 whole entry): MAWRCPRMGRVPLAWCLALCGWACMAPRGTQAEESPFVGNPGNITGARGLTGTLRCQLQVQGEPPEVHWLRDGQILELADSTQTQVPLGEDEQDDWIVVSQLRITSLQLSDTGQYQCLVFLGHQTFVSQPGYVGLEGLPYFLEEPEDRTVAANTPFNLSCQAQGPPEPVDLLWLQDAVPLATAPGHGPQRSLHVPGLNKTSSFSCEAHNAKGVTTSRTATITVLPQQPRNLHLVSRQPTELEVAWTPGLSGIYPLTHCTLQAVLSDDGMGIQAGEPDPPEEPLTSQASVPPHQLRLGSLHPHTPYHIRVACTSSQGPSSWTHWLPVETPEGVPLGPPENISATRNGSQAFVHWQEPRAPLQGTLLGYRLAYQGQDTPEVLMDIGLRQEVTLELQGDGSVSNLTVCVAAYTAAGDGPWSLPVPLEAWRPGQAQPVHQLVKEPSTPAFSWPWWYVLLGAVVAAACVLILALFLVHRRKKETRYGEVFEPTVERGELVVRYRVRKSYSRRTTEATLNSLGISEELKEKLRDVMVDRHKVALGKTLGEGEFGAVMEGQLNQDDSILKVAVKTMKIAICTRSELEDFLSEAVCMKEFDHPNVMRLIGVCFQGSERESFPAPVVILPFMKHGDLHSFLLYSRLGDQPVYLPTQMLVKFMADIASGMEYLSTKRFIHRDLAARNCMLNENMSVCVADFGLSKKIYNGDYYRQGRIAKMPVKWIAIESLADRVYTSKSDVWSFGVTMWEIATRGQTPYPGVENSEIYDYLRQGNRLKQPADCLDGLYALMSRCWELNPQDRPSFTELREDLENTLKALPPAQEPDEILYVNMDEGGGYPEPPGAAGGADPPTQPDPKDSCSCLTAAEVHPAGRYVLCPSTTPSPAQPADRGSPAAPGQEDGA

[3] = biological target: CAMKK2 (Homo sapiens, UniProt Q96RR4)
CAMKK2, sequence (Q96RR4 whole entry): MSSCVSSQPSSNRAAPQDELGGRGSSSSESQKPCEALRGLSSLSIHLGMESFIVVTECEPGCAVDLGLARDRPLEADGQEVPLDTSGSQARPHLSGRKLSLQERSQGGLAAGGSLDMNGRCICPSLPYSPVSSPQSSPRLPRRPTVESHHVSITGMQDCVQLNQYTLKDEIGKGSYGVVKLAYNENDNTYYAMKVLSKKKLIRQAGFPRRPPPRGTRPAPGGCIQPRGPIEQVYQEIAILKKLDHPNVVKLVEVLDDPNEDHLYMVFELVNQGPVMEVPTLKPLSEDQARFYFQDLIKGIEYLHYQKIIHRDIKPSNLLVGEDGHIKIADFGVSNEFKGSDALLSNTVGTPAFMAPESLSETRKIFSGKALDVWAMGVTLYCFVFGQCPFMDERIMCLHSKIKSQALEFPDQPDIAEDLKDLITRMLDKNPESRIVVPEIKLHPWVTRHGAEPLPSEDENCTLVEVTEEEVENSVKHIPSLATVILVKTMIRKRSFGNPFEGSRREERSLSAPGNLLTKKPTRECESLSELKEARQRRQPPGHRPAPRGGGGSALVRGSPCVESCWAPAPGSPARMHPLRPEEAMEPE

[4] = biological target: CIT (Homo sapiens, UniProt O14578)
[5] = biological target: EPHA2 (Homo sapiens, UniProt P29317)
[6] = biological target: FLT4 (Homo sapiens, UniProt P35916)
[7] = biological target: LIMK2 (Homo sapiens, UniProt P53671)
[8] = biological target: MAP2K1 (Homo sapiens, UniProt Q02750)
MAP2K1, sequence (Q02750 whole entry): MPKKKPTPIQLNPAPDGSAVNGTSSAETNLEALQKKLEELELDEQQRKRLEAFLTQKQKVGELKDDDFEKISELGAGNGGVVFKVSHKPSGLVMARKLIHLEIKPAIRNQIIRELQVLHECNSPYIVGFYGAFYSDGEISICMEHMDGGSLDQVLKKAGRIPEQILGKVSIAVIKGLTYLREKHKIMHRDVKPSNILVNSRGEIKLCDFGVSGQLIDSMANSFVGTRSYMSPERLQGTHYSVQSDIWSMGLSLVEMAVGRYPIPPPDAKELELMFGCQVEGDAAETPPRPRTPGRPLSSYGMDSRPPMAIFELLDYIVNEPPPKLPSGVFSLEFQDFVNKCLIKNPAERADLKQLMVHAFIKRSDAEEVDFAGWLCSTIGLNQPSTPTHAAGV

[9] = biological target: MAP2K2 (Homo sapiens, UniProt P36507)
[10] = biological target: MAST3 (Homo sapiens, UniProt O60307)
[11] = biological target: MKNK2 (Homo sapiens, UniProt Q9HBH9)
[12] = biological target: NEK6 (Homo sapiens, UniProt Q9HC98)
NEK6, sequence (Q9HC98 whole entry): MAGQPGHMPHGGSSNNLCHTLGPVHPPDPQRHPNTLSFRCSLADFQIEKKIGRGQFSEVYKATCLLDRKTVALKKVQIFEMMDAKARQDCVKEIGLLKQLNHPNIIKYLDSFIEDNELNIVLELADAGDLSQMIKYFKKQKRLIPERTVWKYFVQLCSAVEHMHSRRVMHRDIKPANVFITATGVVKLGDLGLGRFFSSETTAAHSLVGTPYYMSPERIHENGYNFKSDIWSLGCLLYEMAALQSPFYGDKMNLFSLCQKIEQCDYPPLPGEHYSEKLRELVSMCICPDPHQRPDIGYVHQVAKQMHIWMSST

[13] = biological target: PDPK1 (Homo sapiens, UniProt O15530)
[14] = biological target: PFKL (Homo sapiens, UniProt P17858)
[15] = biological target: PIK3C3 (Homo sapiens, UniProt Q8NEB9)
PIK3C3, sequence (Q8NEB9 whole entry): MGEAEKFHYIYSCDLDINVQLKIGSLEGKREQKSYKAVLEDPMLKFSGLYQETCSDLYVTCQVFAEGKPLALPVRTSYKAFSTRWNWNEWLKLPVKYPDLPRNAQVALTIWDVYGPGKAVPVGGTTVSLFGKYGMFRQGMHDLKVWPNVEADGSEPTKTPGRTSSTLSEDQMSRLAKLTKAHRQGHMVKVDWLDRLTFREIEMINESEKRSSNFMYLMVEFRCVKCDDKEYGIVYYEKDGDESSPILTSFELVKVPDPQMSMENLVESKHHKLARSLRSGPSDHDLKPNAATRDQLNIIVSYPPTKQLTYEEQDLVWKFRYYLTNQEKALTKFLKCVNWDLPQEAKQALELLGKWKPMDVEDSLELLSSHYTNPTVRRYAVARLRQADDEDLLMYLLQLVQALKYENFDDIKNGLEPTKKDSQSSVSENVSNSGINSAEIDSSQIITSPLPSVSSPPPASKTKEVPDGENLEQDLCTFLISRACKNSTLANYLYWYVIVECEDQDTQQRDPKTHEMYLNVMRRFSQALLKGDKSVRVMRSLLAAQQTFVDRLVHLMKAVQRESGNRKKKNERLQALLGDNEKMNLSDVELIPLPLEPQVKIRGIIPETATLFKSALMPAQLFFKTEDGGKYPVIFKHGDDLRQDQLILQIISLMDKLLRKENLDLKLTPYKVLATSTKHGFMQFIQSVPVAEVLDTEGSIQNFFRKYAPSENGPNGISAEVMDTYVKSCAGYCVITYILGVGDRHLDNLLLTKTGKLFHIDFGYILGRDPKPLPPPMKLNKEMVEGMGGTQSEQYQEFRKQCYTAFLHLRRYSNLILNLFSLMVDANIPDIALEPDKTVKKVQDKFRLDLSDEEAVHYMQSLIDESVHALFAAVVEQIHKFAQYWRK

[16] = biological target: PRKCA (Homo sapiens, UniProt P17252)
[17] = biological target: SERPINB2 (Homo sapiens, UniProt P05120)
[18] = biological target: SIK2 (Homo sapiens, UniProt Q9H0K1)
SIK2, sequence (Q9H0K1 whole entry): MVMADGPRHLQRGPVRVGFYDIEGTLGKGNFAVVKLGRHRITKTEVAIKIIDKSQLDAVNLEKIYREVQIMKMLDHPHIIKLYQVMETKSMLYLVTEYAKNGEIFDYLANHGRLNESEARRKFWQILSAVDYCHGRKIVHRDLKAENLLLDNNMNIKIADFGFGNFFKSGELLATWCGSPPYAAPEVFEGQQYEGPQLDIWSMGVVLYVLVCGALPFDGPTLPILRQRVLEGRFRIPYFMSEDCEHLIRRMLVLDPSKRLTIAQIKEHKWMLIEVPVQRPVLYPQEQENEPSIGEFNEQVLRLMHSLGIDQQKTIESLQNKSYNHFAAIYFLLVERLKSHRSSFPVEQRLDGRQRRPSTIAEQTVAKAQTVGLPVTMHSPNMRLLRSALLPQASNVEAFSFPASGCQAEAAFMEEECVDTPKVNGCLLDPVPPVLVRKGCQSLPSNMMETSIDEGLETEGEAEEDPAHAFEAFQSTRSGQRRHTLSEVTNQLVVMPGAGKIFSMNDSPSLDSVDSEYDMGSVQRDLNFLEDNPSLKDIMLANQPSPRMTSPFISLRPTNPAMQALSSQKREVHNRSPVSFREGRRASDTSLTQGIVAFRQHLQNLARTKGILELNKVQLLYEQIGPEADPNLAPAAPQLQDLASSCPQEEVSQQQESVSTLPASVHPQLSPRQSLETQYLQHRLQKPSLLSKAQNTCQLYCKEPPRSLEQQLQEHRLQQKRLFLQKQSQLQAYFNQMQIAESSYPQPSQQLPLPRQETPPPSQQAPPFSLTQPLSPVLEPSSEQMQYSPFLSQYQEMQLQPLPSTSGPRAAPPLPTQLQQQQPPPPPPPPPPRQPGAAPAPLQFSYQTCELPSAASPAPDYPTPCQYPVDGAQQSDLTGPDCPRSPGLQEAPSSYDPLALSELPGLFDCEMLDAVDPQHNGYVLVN

[19] = biological target: TESK2 (Homo sapiens, UniProt Q96S53)
[20] = biological target: TNK2 (Homo sapiens, UniProt Q07912)
[21] = biological target: WEE1 (Homo sapiens, UniProt P30291)

SMILES: COc1ccccc1-c1n[nH]c2nc(N[C@H]3CC[C@H](NS(=O)(=O)CCC(F)(F)F)CC3)nc(OC)c12 [compound 31, 3,3,3-Trifluoro-N-(trans-4-((4-methoxy-3-(2-methoxyphenyl)-1H-pyrazolo[3,4-d]pyrimidin-6-yl)amino)cyclohexyl)propane-1-sulfonamide]
- IC50 [1]: ≥ 20 µM
- IC50 [2]: ≥ 20 µM
- IC50 [3]: 8.6 µM
- IC50 [4]: ≥ 20 µM
- IC50 [5]: ≥ 20 µM
- IC50 [6]: ≥ 20 µM
- IC50 [7]: ≥ 20 µM
- IC50 [8]: ≥ 20 µM
- IC50 [9]: ≥ 20 µM
- IC50 [10]: ≥ 20 µM
- IC50 [11]: ≥ 20 µM
- IC50 [12]: ≥ 20 µM
- IC50 [13]: ≥ 20 µM
- IC50 [14]: ≥ 20 µM
- IC50 [15]: ≥ 20 µM
- IC50 [16]: ≥ 20 µM
- IC50 [17]: ≥ 20 µM
- IC50 [18]: ≥ 20 µM
- IC50 [19]: ≥ 20 µM
- IC50 [20]: ≥ 20 µM
- IC50 [21]: ≥ 20 µM
